Source: patent US8993756B2 (Merck Sharp & Dohme Corp., priority 2011, dated 2015)

Assays:
[1] = biological target: JAK3 (Homo sapiens (Human), UniProt P52333); assay: Jak Biochemical HTRF Assay (JAK3); settings: recombinant GST-tagged catalytic domain, [ATP] 2.9 μM
[2] = biological target: JAK2 (Homo sapiens (Human), UniProt O60674); assay: Jak Biochemical HTRF Assay (JAK2); settings: recombinant GST-tagged catalytic domain, [ATP] 8.5 μM
JAK2, sequence (O60674 849-1124): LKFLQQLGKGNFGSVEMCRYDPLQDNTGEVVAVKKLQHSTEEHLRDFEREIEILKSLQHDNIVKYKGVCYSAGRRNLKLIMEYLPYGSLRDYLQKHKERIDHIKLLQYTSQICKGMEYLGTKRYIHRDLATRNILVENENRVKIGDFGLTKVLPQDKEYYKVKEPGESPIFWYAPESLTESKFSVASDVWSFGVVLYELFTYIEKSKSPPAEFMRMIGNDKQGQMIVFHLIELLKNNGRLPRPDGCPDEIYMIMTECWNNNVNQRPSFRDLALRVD

JAK3, sequence (P52333 822-1111): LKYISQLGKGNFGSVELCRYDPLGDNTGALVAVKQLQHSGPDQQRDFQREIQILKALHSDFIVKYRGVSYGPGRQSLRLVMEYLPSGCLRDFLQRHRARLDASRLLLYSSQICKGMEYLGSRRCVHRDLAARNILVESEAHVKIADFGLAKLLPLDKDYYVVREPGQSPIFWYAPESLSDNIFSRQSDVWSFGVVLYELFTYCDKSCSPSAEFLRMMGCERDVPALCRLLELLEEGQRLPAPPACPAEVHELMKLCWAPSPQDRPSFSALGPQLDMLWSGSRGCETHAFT

| SMILES | IC50 [1] | IC50 [2] | IC50 ([1]; given as range class) | IC50 ([2]; given as range class) |
| --- | --- | --- | --- | --- |
| C=C(C)C(=O)Nc1cc(-c2ncnc3[nH]cc(C(=O)OCC)c23)ccn1 [Example 4-35, ethyl 4-{2-[(2-methylacryloyl)amino]pyridin-4-yl}-7H-pyrrolo[2,3-d]pyrimidine-5-carboxylate] | 0.049 nM | > 1500 nM |  |  |
| C=C(F)C(=O)Nc1cccc(-c2ncnc3[nH]cc(C(=O)OCC)c23)c1 [Example 5-1, Ethyl 4-{3-[(2-fluoroacryloyl)amino]phenyl}-7H-pyrrolo[2,3-d]pyrimidine-5-carboxylate] | 0.024 nM | > 1500 nM |  |  |
| CC#CC(=O)Nc1cccc(-c2ncnc3[nH]cc(C(=O)OCC)c23)c1 [Example 5-3, ethyl 4-[3-(but-2-ynoylamino)phenyl]-7H-pyrrolo[2,3-d]pyrimidine-5-carboxylate] | 0.072 nM | > 1500 nM |  |  |
| CCOC(=O)c1c[nH]c2ncnc(-c3cccc(NC(=O)CC#N)c3)c12 [Example 5-4, ethyl 4-{3-[(cyanoacetyl)amino]phenyl}-7H-pyrrolo[2,3-d]pyrimidine-5-carboxylate] |  |  | 10 to 500 nM | 10 to 500 nM |
| C=C(Br)C(=O)Nc1cccc(-c2ncnc3[nH]cc(C(=O)OCC)c23)c1 [Example 5-5, ethyl 4-{3-[(2-bromoacryloyl)amino]phenyl}-7H-pyrrolo[2,3-d]pyrimidine-5-carboxylate] | 0.043 nM | 892 nM |  |  |
| C=C(Cl)C(=O)Nc1cccc(-c2ncnc3[nH]cc(C(=O)OCC)c23)c1 [Example 5-6, ethyl 4-{3-[(2-chloroacryloyl)amino]phenyl}-7H-pyrrolo[2,3-d]pyrimidine-5-carboxylate] | 0.22 nM | > 1500 nM |  |  |
| CCOC(=O)c1c[nH]c2ncnc(-c3cccc(NC(=O)CCC(C)=O)c3)c12 [Example 5-7, ethyl 4-{3-[(4-oxopentanoyl)amino]phenyl}-7H-pyrrolo[2,3-d]pyrimidine-5-carboxylate] |  |  | 10 to 500 nM | > 500 nM |
| CCOC(=O)c1c[nH]c2ncnc(-c3cccc(NC(=O)/C=C/COC)c3)c12 [Example 5-8, ethyl 4-(3-{[(2E)-4-methoxybut-2-enoyl]amino}phenyl)-7H-pyrrolo[2,3-d]pyrimidine-5-carboxylate] | 2.1 nM | > 1500 nM |  |  |
| C/C=C\C(=O)Nc1cccc(-c2ncnc3[nH]cc(C(=O)OCC)c23)c1 [Example 5-9, ethyl 4-{3-[(2Z)-but-2-enoylamino]phenyl}-7H-pyrrolo[2,3-d]pyrimidine-5-carboxylate] | 8.3 nM | > 1500 nM |  |  |
| C=C(F)C(=O)Nc1cc(-c2ncnc3[nH]cc(C(=O)OCC)c23)ccc1F [Example 5-10, ethyl 4-{4-fluoro-3-[(2-fluoroacryloyl)amino]phenyl}-7H-pyrrolo[2,3-d]pyrimidine-5-carboxylate] | 0.013 nM | > 1500 nM |  |  |
| CCOC(=O)c1c[nH]c2ncnc(-c3cccc(NC(=O)C4=COCCO4)c3)c12 [Example 5-13, ethyl 4-{3-[(5,6-dihydro-1,4-dioxin-2-ylcarbonyl)amino]phenyl}-7H-pyrrolo[2,3-d]pyrimidine-5-carboxylate] |  |  | 10 to 500 nM | > 500 nM |
| CCOC(=O)c1c[nH]c2ncnc(-c3cccc(NC(=O)/C=C/C(C)=O)c3)c12 [Example 5-14, ethyl 4-(3-{[(2E)-4-oxopent-2-enoyl]amino}phenyl)-7H-pyrrolo[2,3-d]pyrimidine-5-carboxylate] | 5.3 nM | > 1500 nM |  |  |
| CCOC(=O)c1c[nH]c2ncnc(-c3cccc(NC(=O)/C=C/c4c(C)nn(C)c4C)c3)c12 [Example 5-15, ethyl 4-(3-{[(2E)-3-(1,3,5-trimethyl-1H-pyrazol-4-yl)prop-2-enoyl]amino}phenyl)-7H-pyrrolo[2,3-d]pyrimidine-5-carboxylate] |  |  | 10 to 500 nM | > 500 nM |
| CCOC(=O)c1c[nH]c2ncnc(-c3cccc(NC(=O)/C=C/c4ccccn4)c3)c12 [Example 5-16, ethyl 4-(3-{[(2E)-3-pyridin-2-ylprop-2-enoyl]amino}phenyl)-7H-pyrrolo[2,3-d]pyrimidine-5-carboxylate] | 6.6 nM | 452 nM |  |  |
| CCOC(=O)c1c[nH]c2ncnc(-c3cccc(NC(=O)/C=C/c4ccncc4)c3)c12 [Example 5-17, ethyl 4-(3-{[(2E)-3-pyridin-4-ylprop-2-enoyl]amino}phenyl)-7H-pyrrolo[2,3-d]pyrimidine-5-carboxylate] | 2 nM | > 1500 nM |  |  |
| CCOC(=O)c1c[nH]c2ncnc(-c3cccc(NC(=O)c4c[nH]c(=O)[nH]c4=O)c3)c12 [Example 5-18, ethyl 4-(3-{[(2,4-dioxo-1,2,3,4-tetrahydropyrimidin-5-yl)carbonyl]amino}phenyl)-7H-pyrrolo[2,3-d]pyrimidine-5-carboxylate] |  |  | 10 to 500 nM | > 500 nM |
| CCOC(=O)c1c[nH]c2ncnc(-c3cccc(NC(=O)/C=C/c4c[nH]c5ccccc45)c3)c12 [Example 5-19, ethyl 4-(3-{[(2E)-3-(1H-indo1-3-yl)prop-2-enoyl]amino}phenyl)-7H-pyrrolo[2,3-d]pyrimidine-5-carboxylate] | 2.4 nM | > 1500 nM |  |  |

| SMILES | IC50 [1] | IC50 [2] | IC50 ([1]; given as range class) | IC50 ([2]; given as range class) |
| --- | --- | --- | --- | --- |
| CCOC(=O)c1c[nH]c2ncnc(-c3cccc(NC(=O)c4c[nH]c(=O)[nH]4)c3)c12 [Example 5-20, ethyl 4-(3-{[(2-oxo-2,3-dihydro-1H-imidazol-4-yl)carbonyl]amino}phenyl)-7H-pyrrolo[2,3-d]pyrimidine-5-carboxylate] |  |  | 10 to 500 nM | > 500 nM |
| CCOC(=O)c1c[nH]c2ncnc(-c3cccc(NC(=O)/C=C/c4cccs4)c3)c12 [Example 5-21, ethyl 4-(3-{[(2E)-3-thiophen-2-ylprop-2-enoyl]amino}phenyl)-7H-pyrrolo[2,3-d]pyrimidine-5-carboxylate] |  |  | 10 to 500 nM | > 500 nM |
| CCOC(=O)c1c[nH]c2ncnc(-c3cccc(NC(=O)/C=C/c4ccoc4)c3)c12 [Example 5-22, ethyl 4-(3-{[(2E)-3-furan-3-ylprop-2-enoyl]amino}phenyl)-7H-pyrrolo[2,3-d]pyrimidine-5-carboxylate] |  |  | 10 to 500 nM | > 500 nM |
| CCOC(=O)c1c[nH]c2ncnc(-c3cccc(NC(=O)/C=C\c4ccccc4OC)c3)c12 [Example 5-23, ethyl 4-(3-{[(2Z)-3-(2-methoxyphenyl)prop-2-enoyl]amino}phenyl)-7H-pyrrolo[2,3-d]pyrimidine-5-carboxylate] |  |  | 10 to 500 nM | > 500 nM |
| CCOC(=O)c1c[nH]c2ncnc(-c3cccc(NC(=O)/C=C/c4cccc(OC)c4)c3)c12 [Example 5-24, ethyl 4-(3-{[(2E)-3-(3-methoxyphenyl)prop-2-enoyl]amino}phenyl)-7H-pyrrolo[2,3-d]pyrimidine-5-carboxylate] |  |  | 10 to 500 nM | > 500 nM |
| CC/C=C(\C)C(=O)Nc1cccc(-c2ncnc3[nH]cc(C(=O)OCC)c23)c1 [Example 5-25, ethyl 4-(3-{[(2E)-2-methylpent-2-enoyl]amino}phenyl)-7H-pyrrolo[2,3-d]pyrimidine-5-carboxylate] |  |  | 10 to 500 nM | > 500 nM |
| CCOC(=O)c1c[nH]c2ncnc(-c3cccc(NC(=O)/C(F)=C/c4ccccc4)c3)c12 [Example 5-26, ethyl 4-(3-{[(2Z)-2-fluoro-3-phenylprop-2-enoyl]amino}phenyl)-7H-pyrrolo[2,3-d]pyrimidine-5-carboxylate] |  |  | 10 to 500 nM | > 500 nM |
| CCOC(=O)c1c[nH]c2ncnc(-c3cccc(NC(=O)C=C(C)C)c3)c12 [Example 5-27, ethyl 4-{3-[(3-methylbut-2-enoyl)amino]phenyl}-7H-pyrrolo[2,3-d]pyrimidine-5-carboxylate] |  |  | 10 to 500 nM | > 500 nM |
| CCOC(=O)c1c[nH]c2ncnc(-c3cccc(NC(=O)/C=C/c4ccc(OC)cc4)c3)c12 [Example 5-29, ethyl 4-(3-{[(2E)-3-(4-methoxyphenyl)prop-2-enoyl]amino}phenyl)-7H-pyrrolo[2,3-d]pyrimidine-5-carboxylate] |  |  | 10 to 500 nM | > 500 nM |
| CCOC(=O)c1c[nH]c2ncnc(-c3cccc(NC(=O)/C=C/c4cccnc4)c3)c12 [Example 5-30, ethyl 4-(3-{[(2E)-3-pyridin-3-ylprop-2-enoyl]amino}phenyl)-7H-pyrrolo[2,3-d]pyrimidine-5-carboxylate] |  |  | 10 to 500 nM | > 500 nM |
| C/C=C(\C)C(=O)Nc1cccc(-c2ncnc3[nH]cc(C(=O)OCC)c23)c1 [Example 5-31, ethyl 4-(3-{[(2E)-2-methylbut-2-enoyl]aminol}phenyl)-7H-pyrrolo[2,3-d]pyrimidine-5-carboxylate] |  |  | 10 to 500 nM | > 500 nM |
| CCOC(=O)c1c[nH]c2ncnc(-c3cccc(NC(=O)/C=C/c4ccco4)c3)c12 [Example 5-32, ethyl 4-(3-{[(2E)-3-furan-2-ylprop-2-enoyl]amino}phenyl)-7H-pyrrolo[2,3-d]pyrimidine-5-carboxylate] |  |  | 10 to 500 nM | > 500 nM |
| CC/C=C/C(=O)Nc1cccc(-c2ncnc3[nH]cc(C(=O)OCC)c23)c1 [Example 5-33, ethyl 4-{3-[(2E)-pent-2-enoylamino]phenyl}-7H-pyrrolo[2,3-d]pyrimidine-5-carboxylate] |  |  | 10 to 500 nM | > 500 nM |
| CCOC(=O)c1c[nH]c2ncnc(-c3cccc(NC(=O)/C=C(/C)C(F)(F)F)c3)c12 [Example 5-34, ethyl 4-(3-{[(2Z)-4,4,4-trifluoro-3-methylbut-2-enoyl]amino}phenyl)-7H-pyrrolo[2,3-d]pyrimidine-5-carboxylate] | 1.9 nM | > 1500 nM |  |  |
| CCOC(=O)c1c[nH]c2ncnc(-c3cccc(NC(=O)C4=CCCCC4)c3)c12 [Example 5-35, ethyl 4-{3-[(cyclohex-1-en-1-ylcarbonyl)amino]phenyl}-7H-pyrrolo[2,3-d]pyrimidine-5-carboxylate] |  |  | 10 to 500 nM | > 500 nM |
| CCOC(=O)c1c[nH]c2ncnc(-c3cccc(NC(=O)C4=CC(=O)CC4)c3)c12 [Example 5-36, ethyl 4-(3-{[(3-oxocyclopent-1-en-1-yl)carbonyl]amino}phenyl)-7H-pyrrolo[2,3-d]pyrimidine-5-carboxylate] | 0.14 nM | > 1500 nM |  |  |
